Experimental data reported in patent US10034836B2, “Formulations of guanylate cyclase C agonists and methods of use” (SYNERGY PHARMACEUTICALS, INC., priority 2008, dated 2018).
Where a SMILES comes first, the peptide text is derived from it. Bridges are numbered along the chain shown (N, C = ends).

How the values were obtained:
[1] = test system: healthy male and female subjects; conditions: in vivo, po
cynomolgus monkeys [2] = assay: Repeated daily oral dose for 28 days in cynomolgus monkeys, stool consistency; conditions: cynomolgus monkey, in vivo, 10 mg/kg
Description: FIG. 19: Determination of SP-304 dose that produced diarrhea in monkeys. Two groups of monkeys, male and female, were treated with a single dose of SP-304 per day continuously for 28 days (for each group, 0 and 75 mg/kg, n=5; 1, 10 mg/kg, n=4). Stool consistency and bowel frequency were noted every day. Results are presented as cumulative score for 28 days. The scoring used for stool consistency was as follows: 0: No stool, 1: Normal stool, 2: Loose/mushy stool and 3: Diarrhea/watery stool.
Male (n=4) and female (n=4) monkeys were given a daily dose (1 or 10 or 75 mg/kg body weight) of SP-304 repeatedly for 28 days. Effect of treatment on stool consistency was recorded three times a day. […] Therefore, SP-304 was used at 10 mg/kg body weight in the subsequent experiments.

cynomolgus monkeys [3] = assay: Repeated oral dose toxicity study of SP-304 in cynomolgus monkeys (14 days); assay type: in vivo
Description: The primary purpose of this experiment was to evaluate the toxicity and pharmacokinetics of a repeated oral dose of SP-304 in cynomolgus monkeys. […] Monkeys returned to normal stool consistency within 24-48 hours following the last dose of SP-304.

[4] = assay type: in vitro ADME; conditions: pH 2
Description: FIG. 1A: Biological activity of SP-304 incubated for varying lengths of time in simulated gastric fluid (SGF). The biological activity of SP-304 was determined by measuring its ability to stimulate cGMP synthesis in T84 cells. Samples incubated for 0, 15, 30, 60, 90 and 120 minutes, respectively, were collected and analyzed for biological activity—with activity of the 0 min sample defined as 100% biological activity. The activities of the other samples are shown as percentage activity relative to the 0 min activity sample. Data points shown are the average of triplicate measurements±SD.
The stability of SP-304 in the presence of simulated gastric fluid (SGF) was determined by biological activity measurements and HPLC analyses (FIGS. 1A & 1B). SP-304 (final concentration of 8.5 mg/ml) was incubated in SGF (Proteose peptone (8.3 g/liter; Difco), D-Glucose (3.5 g/liter; Sigma), NaCl (2.05 g/liter; Sigma), KH2PO4 (0.6 g/liter; Sigma), CaCl2 (0.11 g/liter), KCl (0.37 g/liter; Sigma), Porcine bile (final 1× concentration 0.05 g/liter; Sigma) in PBS, Lysozyme (final 1× concentration 0.10 g/liter; Sigma) in PBS, Pepsin (final 1× concentration 0.0133 g/liter; Sigma) in PBS). SGF was made on the day of the experiment and the pH was adjusted to 2.0±0.1 using HCl or NaOH as necessary. After the pH adjustment, SGF is filter sterilized with 0.22 μm membrane filters. […]

[5] = test system: healthy male and female subjects; assay: Phase 1 single ascending oral dose study, safety and tolerability; conditions: healthy volunteers
[6] = assay type: in vitro ADME
Description: FIG. 1B: Schematic representation of HPLC chromatographic analyses of SP-304 samples after incubation with SGF for 0 and 120 min, respectively. The arrows show the elution position of SP-304.
The stability of SP-304 in the presence of simulated gastric fluid (SGF) was determined by biological activity measurements and HPLC analyses (FIGS. 1A & 1B). SP-304 (final concentration of 8.5 mg/ml) was incubated in SGF (Proteose peptone (8.3 g/liter; Difco), D-Glucose (3.5 g/liter; Sigma), NaCl (2.05 g/liter; Sigma), KH2PO4 (0.6 g/liter; Sigma), CaCl2 (0.11 g/liter), KCl (0.37 g/liter; Sigma), Porcine bile (final 1× concentration 0.05 g/liter; Sigma) in PBS, Lysozyme (final 1× concentration 0.10 g/liter; Sigma) in PBS, Pepsin (final 1× concentration 0.0133 g/liter; Sigma) in PBS). SGF was made on the day of the experiment and the pH was adjusted to 2.0±0.1 using HCl or NaOH as necessary. After the pH adjustment, SGF is filter sterilized with 0.22 μm membrane filters. SP-304 (final concentration of 8.5 mg/ml) was incubated in SGF at 37° C. for 0, 15, 30, […] and 120 min, respectively, in triplicate aliquots. Following incubations, samples were snap frozen in dry ice then stored in a −80° C. freezer until assayed in duplicate.
Here, aliquots of the two samples were analyzed by HPLC using a previously developed method for analyzing SP-304 peptide. […]

[7] = Stability in simulated intestinal fluid (SIF), HPLC analysis; assay type: in vitro ADME
Description: FIG. 2B: HPLC chromatographic spectra of SP-304 samples after incubation with: (A) heat-inactivated SIF for 300 minutes, or (B) SIF for 120 minutes. The arrows show the elution position of SP-304.
FIGS. 7D-1-7D-2: HPLC chromatograms of SP-304 incubated for 0 min in SIF (FIG. 7D-1) and 60 min in SIF (FIG. 7D-2), respectively. The arrows indicate the elution positions of the parent SP-304 peptides. […] These new peptide peaks represent degradation products of SP-304.
FIGS. 7E-1-7-E2: HPLC chromatograms of SP-332 incubated for 0 min in SIF (FIG. 7E-1) and 120 min in SIF (FIG. 7E-2), respectively. The arrows indicate the elution positions of the parent SP-332 peptides.
FIGS. 7F-1-7F-2: HPLC chromatograms of SP-333 incubated for 0 min in SIF (FIG. 7F-1) and 120 min in SIF (FIG. 7F-2), respectively. The arrows indicate the elution positions of the parent SP-333 peptides.
FIGS. 7G-1-7G-5: Incubation of SP-333 with SIF for 2, 6, 12 and 24 hrs. Effect of SIF digestion on the activity of SP-333 in T84 stimulation assay was determined (FIG. 7G-1) and samples were also analyzed by HPLC (FIGS. 7G2-5). The elution positions of the parent peptide and its metabolites are indicated by arrows.
The physical stability of SP-304 peptide exposed to SIF was evaluated by HPLC using the method described for SGF digestion. […]

In the case of `CC(C)C[C@H](NC(=O)[C@@H]1CSSC[C@@H]2NC(=O)[C@H](CC(C)C)NC(=O)[C@H](CCC(=O)O)NC(=O)[C@@H](NC(=O)[C@H](CCC(=O)O)NC(=O)[C@H](CC(=O)O)NC(=O)[C@@H](N)CC(N)=O)CSSC[C@H](NC(=O)[C@H](C)NC(=O)[C@H](C(C)C)NC(=O)[C@H](CC(N)=O)NC(=O)[C@H](C(C)C)NC2=O)C(=O)N[C@@H]([C@@H](C)O)C(=O)NCC(=O)N1)C(=O)O` [SP-304, Asn^1-Asp^2-Glu^3-Cys^4-Glu^5-Leu^6-Cys^7-Val^8-Asn^9-Val^10-Ala^11-Cys^12-Thr^13-Gly^14-Cys^15-Leu^16] (H-NDECELCVNVACTGCL-OH; disulfide 4-12, 7-15), the “most prevalent adverse event: grade I diarrhea (CTCAE)” value [1] is reported as 12.7%, the “effect on stool consistency in females” value (cynomolgus monkeys [2]) is reported as “severe diarrhea consistently” and the “time to return to normal stool consistency following the last dose” value (cynomolgus monkeys [3]; cynomolgus monkey, in vivo) is reported as 24 to 48 h. For the same compound, the “tolerability of repeated oral dose” value (cynomolgus monkeys [3]; daily dose of 250 mg for 14 consecutive days, cynomolgus monkeys) was “well tolerated”, the “activity after exposure to the acidic pH of the SGF” value [4] was “unaltered” and the “biological activity after incubation with SGF (breakdown in SGF)” value [4] was “resistant to breakdown in SGF”. For the same compound, the “severe adverse events (SAEs)” value ([5]; 0.1 to 48.6 mg single oral dose) was “no severe adverse events”, the “tolerability of single oral dose” value ([5]; 0.1 to 48.6 mg) was “well-tolerated” and the “major HPLC peak following incubation with SGF” value [6] was “did not change”. The “HPLC analysis after incubation with heat-inactivated SIF” value [7] was “remained intact”.
